The text below walks through data of paper PMC12523804, “Evaluation of molecular mechanisms of (Z)-3-(pentadec-10′-enyl)-catechol (litreol) and synthetic derivatives as inhibitors of human leukotriene biosynthesis” (Redox Biology, 2025).

The test system of data set [1] is intracellular Ca2+. The data set is described as follows: Intracellular Ca2+ measurements in PMNL (Fura-2). Conditions: 1 μM compound. Format: cell-based, human. Here is the method:
PMNL (10^7 x ml PG buffer) were pre-stained with Fura-2/AM (2 μM) for 45 min at 37 °C in the dark. After two washing steps, cells were resuspended in PG buffer containing 0.1 % BSA at a density of 5 × 10^6/mL. 100 μL of the cell suspension was transferred into a 96-well plate and pre-incubated for 10 min at 37 °C with compound or vehicle (1 % DMSO), and 2 min prior stimulation 1 mM CaCl2 was added, following addition of 0.1 μM fMLP or 2 μM ionomycin as a positive control for Ca^2+ influx. The signal was monitored in a thermally (37 °C) controlled NOVOstar microplate reader (BMG Labtechnologies GmbH, Offenburg, Germany) (emission at 510 nm, excitation at 340 nm (Ca^2+-bound Fura-2) and 380 nm (free Fura-2). After cell lysis with Triton X-100 the maximal fluorescence signals were monitored and after chelating Ca^2+ with 10 mM EDTA the minimal fluorescence signals. The concentration of Ca^2+ was calculated from the ratio of the signals at 340 and 380 nm according to Grynkiewicz G et al..

The target in data set [2] is T1, 5-LO (Homo sapiens, UniProt P09917).
T1 sequence (P09917 1-674): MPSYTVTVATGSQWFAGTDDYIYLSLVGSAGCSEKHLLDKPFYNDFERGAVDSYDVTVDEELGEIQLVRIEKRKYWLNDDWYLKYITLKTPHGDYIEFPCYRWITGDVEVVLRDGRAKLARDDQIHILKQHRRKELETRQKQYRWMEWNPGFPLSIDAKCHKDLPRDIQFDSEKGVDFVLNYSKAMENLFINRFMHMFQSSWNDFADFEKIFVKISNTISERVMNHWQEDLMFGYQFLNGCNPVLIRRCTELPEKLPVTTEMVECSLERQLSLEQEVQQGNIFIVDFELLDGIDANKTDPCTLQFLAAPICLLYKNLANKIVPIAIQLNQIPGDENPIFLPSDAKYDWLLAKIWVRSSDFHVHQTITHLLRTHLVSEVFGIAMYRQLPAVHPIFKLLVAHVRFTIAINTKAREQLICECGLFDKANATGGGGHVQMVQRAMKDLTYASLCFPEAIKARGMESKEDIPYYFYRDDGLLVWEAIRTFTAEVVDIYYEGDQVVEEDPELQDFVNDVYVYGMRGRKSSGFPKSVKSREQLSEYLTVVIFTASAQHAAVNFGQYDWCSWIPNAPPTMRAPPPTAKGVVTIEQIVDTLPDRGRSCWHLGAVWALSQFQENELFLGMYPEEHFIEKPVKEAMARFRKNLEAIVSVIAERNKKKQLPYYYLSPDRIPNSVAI
Kind of data set: cell-free 5-LO activity assay with purified human recombinant 5-LO. Format: biochemical. Also noted: made in house. As to conditions: for mechanism of 5-LO inhibition versus substrate AA: AA 2.5, 5, 10, 20, 40 and 80 μM; for mechanism of 5-LO inhibition versus substrate AA / AA concentration at which maximal inhibitory potency was reached: isolated 5-LO; for AA concentration at which maximal inhibitory potency was reached: varying AA. Here is the method: 5-LO was expressed in E. coli B121 (DE3) transformed with pT3- 5LO plasmid, and purification of 5-LO was performed as described previously. Briefly, E. coli was lysed in 50 mM tri-ethanolamine/HCl, pH 8.0, 5 mM EDTA, […] soybean trypsin inhibitor, 1 mM phenylmethanesulfonyl fluoride, 1 mM dithiothreitol and 1 mg/mL lysozyme and then sonified (3 × 15 s). The homogenate was then centrifuged at 40,000g for 20 min at 4°C. 5-LO in the supernatant was partially purified by affinity chromatography on an ATP-agarose column (Sigma-Aldrich). Semi-purified 5-LO was diluted in PBS containing EDTA (1 mM) and ATP (1 mM) and immediately used for 5-LO activity assays. Samples were pre-incubated with the test compounds or vehicle (0.1 % DMSO) for 10 min at 4°C. Samples were pre-warmed for 30 s at 37°C, and 2 mM CaCl2 plus the indicated concentrations of AA were added to start 5-LO product formation. The reaction was stopped after 10 min by addition of one volume of ice-cold methanol, and the formed metabolites were analyzed by HPLC. 5- LO products include the all-trans isomers of LTB4 as well as 5-HPETE and its corresponding alcohol 5-HETE.

The subject of data set [3] is ERK. Kind of data set: Western blot of ERK phosphorylation. Conditions: for fMLP-induced activation (phosphorylation) of ERK: PMNL, 1 μM compound, 1 μM fMLP. It is filed as cell-based, human. On the procedure:
(§1) Human polymorphonuclear leukocytes (PMNLs; 50 × 10^6), isolated from whole blood, were resuspended in 1 mL of cold PGC buffer. Briefly, neutrophils were pre-incubated for 15 min at 37 °C with test compounds (1 μM). […] The samples were subsequent centrifuged (1200g, 10 min) and the pellets were resuspended in 100 μL od SDS-PAGE loading buffer (2x) (Tris 1 M pH 8, EDTA 0.2 M, 10 % SDS, 10 % mercaptoethanol). Correct protein loading on the gels and transfer of proteins to the nitrocellulose membrane were confirmed by Ponceau staining. Membranes with transferred proteins were incubated overnight with primary antibodies in 1x Tris Buffered Saline (TBS) with 1 % Casein (Biorad- #1610782). Membranes were then washed and incubated with horseradish peroxidase-conjugated secondary antibodies for 1 h at room temperature. Blots were developed using enhanced chemiluminescence detection reagents ECL (Immobilion ECL Ultra Western HRP Substrate - Cat# WBULS0500 Millipore) and acquired using ChemiDoc Imaging System (BioRad). Antibody recognizing phosphorylated p38-MAPkinase, pERK, ERK, NfKB were from Cell Signalling Technology (Boston, MA) and used at 1:1000 dilution. Secondary antibodies were purchased from Biorad (170–6515; 170–6516) and used at 1:2000 diluition.
On the technique in general: Immunoblotting shows a protein as a band on a membrane.

Data set [4] relates to ROS formation in PMNL. Kind of data set: ROS formation in neutrophils (DCF-DA). As to conditions: 1 and 10 μM, 0.1 μM PMA. It is filed as cell-based, human. On the procedure:
Neutrophils (10^7 cells/mL in PG buffer) were pre-incubated for 15 min at 37 °C with litreol compounds, diphenyleneiodonium chloride (DPI, used as a positive control for ROS inhibition), or 0.1 % DMSO as vehicle control. Then, 2′,7′-dichlorofluorescence-diacetate (DCF-DA; 1 μg/mL) and CaCl2 (1 mM) were added 2 min prior to addition of 0.1 μM phorbol myristate acetate (PMA, AppliChem, Darmstadt, Germany). The fluorescence emission at 530 nm was measured after excitation at 485 nm in a thermally controlled (37 °C) NOVOstar microplate reader (BMG Labtechnologies GmbH, Offenburg, Germany).

Data set [5] deals with human PMNLs. The data set is described as follows: Lactate dehydrogenase release (LDH assay) in PMNL. It is filed as cell-based. On the procedure: After treatment of PMNL, supernatants were centrifuged (600g × 5 min, 4 °C), and 100 μL of supernatant were mixed with 200 μL LDH reaction buffer (75 mM Tris/HCl, pH 7.4, 0.3 mM NADH, 1.5 mM Na-pyruvate) in a 96-well plate. The decrease of NADH was measured immediately by absorbance at 340 nm in a kinetic mode (every 7 s for 20 min; Multiskan Spectrum). As a positive control for maximal LDH release, cells treated with 1 % Triton X-100 were included in each experiment, while untreated cells and vehicle (DMSO) served as negative controls.

For data set [6], the system named is p38 MAPK. The data set is described as follows: Western blot of p38 MAPK phosphorylation. It is filed as cell-based, human. As to conditions: for fMLP-induced activation (phosphorylation) of p38 MAP kinase: PMNL, 1 μM compound, 1 μM fMLP. Here is the method:
as §1

Broadly, the IC50 is the concentration at which inhibition is half-maximal. `CCCC/C=C\CCCCCCCCCc1cccc(O)c1O` [CI, (Z)-3-(pentadec-10′-enyl)-catechol]: the “intracellular Ca2+ concentrations” value in data set [1] is recorded as “Neither CS nor CI caused significant changes”. In data set [2], the IC50 is 60 ± 40 nM, the “mechanism of 5-LO inhibition versus substrate AA” value was “excluding a substrate competitive mechanism” and the “AA concentration at which maximal inhibitory potency was reached” value is 20000 nM. In addition, in data set [3] (LPS stimulation), the “phosphorylation and expression of ERK (Western blot)” value was “significantly inhibited”. In addition, the “fMLP-induced activation (phosphorylation) of ERK” value in data set [3] was “inhibited”. In addition, the “ROS formation in PMA-stimulated PMNL” value in data set [4] was “not affected”. In addition, in data set [5], the “cytotoxicity on PMNL (LDH levels in the supernatants)” value is “comparable to those of untreated controls”. The “phosphorylation and expression of p38 MAPK (Western blot)” value in data set [6] (LPS stimulation) is listed as “significantly inhibited”. Besides, in data set [6], the “fMLP-induced activation (phosphorylation) of p38 MAP kinase” value is “inhibited”.
Take `CCCCCCCCCCCCCCCc1cccc(O)c1O` [CS, 3-n-pentadecylcatechol]: the “intracellular Ca2+ concentrations” value in data set [1] is listed as “Neither CS nor CI caused significant changes”. For the same molecule, in data set [2], the concentration for half-maximal inhibition (IC50) was found to be 150 nM, the “mechanism of 5-LO inhibition versus substrate AA” value is listed as “not competitive” and the “AA concentration at which maximal inhibitory potency was reached” value is 2500 nM. Further, the “fMLP-induced activation (phosphorylation) of ERK” value in data set [3] was “did not show significant effects”. Also, the “ROS formation in PMA-stimulated PMNL” value in data set [4] was “not affected”. For the same molecule, the “cytotoxicity on PMNL (LDH levels in the supernatants)” value in data set [5] is “comparable to those of untreated controls”. Besides, in data set [6], the “fMLP-induced activation (phosphorylation) of p38 MAP kinase” value is “did not show significant effects”.
